Laboratory results reported in PubChem BioAssay AID1918936 (Molecular Pharmacology Branch, DTP, NCI, 2023).

Test system: 349418-098-R-PDC complex spheroid viability
Assay: Anticancer human tumor 349418-098-R-PDC patient-derived lung adenocarcinoma cell line growth inhibition
Conditions: for IC50: curve of first compound; for viability, T/C: stronger effect = lower value
Method in brief: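 Complex spheroids of tumor cells with HUVEC and human MSCs, exposed to iadademstat combined with other agents. Each agent tested in half-log steps from near clinical Cmax (else 10 microM top), DMSO ≤0.25%.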

[1] = second compound 0.1 µM, first compound 0.0316 µM
[2] = second compound 0.1 µM, first compound 0.1 µM
[3] = second compound 0.1 µM, first compound 0.316 µM
[4] = second compound 0.1 µM, first compound 1 µM
[5] = second compound 0.1 µM, first compound 3.16 µM
[6] = second compound 0.1 µM, first compound 10 µM
[7] = second compound 0.316 µM, first compound 0.0316 µM
[8] = second compound 0.316 µM, first compound 0.1 µM
[9] = second compound 0.316 µM, first compound 0.316 µM
[10] = second compound 0.316 µM, first compound 1 µM
[11] = second compound 0.316 µM, first compound 3.16 µM
[12] = second compound 0.316 µM, first compound 10 µM
[13] = second compound 1 µM, first compound 0.0316 µM
[14] = second compound 1 µM, first compound 0.1 µM
[15] = second compound 1 µM, first compound 0.316 µM
[16] = second compound 1 µM, first compound 1 µM
[17] = second compound 1 µM, first compound 3.16 µM
[18] = second compound 1 µM, first compound 10 µM
[19] = second compound 3.16 µM, first compound 0.0316 µM
[20] = second compound 3.16 µM, first compound 0.1 µM
[21] = second compound 3.16 µM, first compound 0.316 µM
[22] = second compound 3.16 µM, first compound 1 µM
[23] = second compound 3.16 µM, first compound 3.16 µM
[24] = second compound 3.16 µM, first compound 10 µM
[25] = second compound 10 µM, first compound 0.0316 µM
[26] = second compound 10 µM, first compound 0.1 µM
[27] = second compound 10 µM, first compound 0.316 µM
[28] = second compound 10 µM, first compound 1 µM
[29] = second compound 10 µM, first compound 3.16 µM
[30] = second compound 10 µM, first compound 10 µM
[31] = second compound 0.1 µM, first compound 0.00316 µM
[32] = second compound 0.1 µM, first compound 0.01 µM
[33] = second compound 0.316 µM, first compound 0.00316 µM
[34] = second compound 0.316 µM, first compound 0.01 µM
[35] = second compound 1 µM, first compound 0.00316 µM
[36] = second compound 1 µM, first compound 0.01 µM
[37] = second compound 3.16 µM, first compound 0.00316 µM
[38] = second compound 3.16 µM, first compound 0.01 µM
[39] = second compound 10 µM, first compound 0.00316 µM
[40] = second compound 10 µM, first compound 0.01 µM
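Further: spheroids exposed to agents for seven days before readout.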
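Wherever viability, T/C is given: 100% = DMSO vehicle control wells.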

SMILES: CC(C)c1c(-c2ccccc2)nc2c(C#N)c[nH]n2c1=O + NC1CC1c1ccc(-c2cccc(O)c2)cc1
- IC50 (second compound 0.1 µM): > 10000 nM
- IC50 (second compound 0.316 µM): > 10000 nM
- IC50 (second compound 1 µM): > 10000 nM
- IC50 (second compound 3.16 µM): > 10000 nM
- IC50 (second compound 10 µM): > 10000 nM
- viability, T/C [1]: 126%
- viability, T/C [2]: 122%
- viability, T/C [3]: 119%
- viability, T/C [4]: 106%
- viability, T/C [5]: 111%
- viability, T/C [6]: 80.7%
- viability, T/C [7]: 95.6%
- viability, T/C [8]: 113%
- viability, T/C [9]: 118%
- viability, T/C [10]: 106%
- viability, T/C [11]: 98.7%
- viability, T/C [12]: 81.8%
- viability, T/C [13]: 114%
- viability, T/C [14]: 103%
- viability, T/C [15]: 120%
- viability, T/C [16]: 99.2%
- viability, T/C [17]: 95.7%
- viability, T/C [18]: 102%
- viability, T/C [19]: 104%
- viability, T/C [20]: 106%
- viability, T/C [21]: 111%
- viability, T/C [22]: 100%
- viability, T/C [23]: 104%
- viability, T/C [24]: 91.2%
- viability, T/C [25]: 86.1%
- viability, T/C [26]: 82.4%
- viability, T/C [27]: 86.7%
- viability, T/C [28]: 75.3%
- viability, T/C [29]: 62.5%
- viability, T/C [30]: 64.8%

SMILES: CC1COCCN1c1cc(-c2ccnn2C)c2ccnc(-c3ccn[nH]3)c2n1 (stereo not given) + NC1CC1c1ccc(-c2cccc(O)c2)cc1
- IC50 (second compound 0.1 µM): < 3.16 nM
- IC50 (second compound 0.316 µM): < 3.16 nM
- IC50 (second compound 1 µM): < 3.16 nM
- IC50 (second compound 3.16 µM): < 3.16 nM
- IC50 (second compound 10 µM): < 3.16 nM
- viability, T/C [31]: 27.6%
- viability, T/C [32]: 16.8%
- viability, T/C [1]: 8.87%
- viability, T/C [2]: 6.42%
- viability, T/C [3]: 5.35%
- viability, T/C [4]: 4.21%
- viability, T/C [33]: 25.8%
- viability, T/C [34]: 15.6%
- viability, T/C [7]: 8.79%
- viability, T/C [8]: 6.08%
- viability, T/C [9]: 5.05%
- viability, T/C [10]: 4.22%
- viability, T/C [35]: 23.5%
- viability, T/C [36]: 14.9%
- viability, T/C [13]: 8.57%
- viability, T/C [14]: 6.23%
- viability, T/C [15]: 4.88%
- viability, T/C [16]: 4.83%
- viability, T/C [37]: 22%
- viability, T/C [38]: 16%
- viability, T/C [19]: 8.3%
- viability, T/C [20]: 5.96%
- viability, T/C [21]: 5.3%
- viability, T/C [22]: 4.55%
- viability, T/C [39]: 16.9%
- viability, T/C [40]: 12.8%
- viability, T/C [25]: 6.32%
- viability, T/C [26]: 5%
- viability, T/C [27]: 4.59%
- viability, T/C [28]: 3.83%

SMILES: COc1ccc([C@@H](O)c2cc(-c3ncnc4cc(N5CCOCC5)ccc34)c(F)cc2Cl)nn1 + NC1CC1c1ccc(-c2cccc(O)c2)cc1
- IC50 (second compound 0.1 µM): 696 nM
- IC50 (second compound 0.316 µM): 741 nM
- IC50 (second compound 1 µM): 644 nM
- IC50 (second compound 3.16 µM): 547 nM
- IC50 (second compound 10 µM): 185 nM
- viability, T/C [1]: 96.6%
- viability, T/C [2]: 88.1%
- viability, T/C [3]: 71.4%
- viability, T/C [4]: 42.1%
- viability, T/C [5]: 10.1%
- viability, T/C [6]: 3.99%
- viability, T/C [7]: 104%
- viability, T/C [8]: 93.8%
- viability, T/C [9]: 87.7%
- viability, T/C [10]: 36.8%
- viability, T/C [11]: 8.34%
- viability, T/C [12]: 3.86%
- viability, T/C [13]: 106%
- viability, T/C [14]: 91.9%
- viability, T/C [15]: 75%
- viability, T/C [16]: 36.2%
- viability, T/C [17]: 7.37%
- viability, T/C [18]: 4.08%
- viability, T/C [19]: 94.8%
- viability, T/C [20]: 83.5%
- viability, T/C [21]: 67.9%
- viability, T/C [22]: 32.1%
- viability, T/C [23]: 6.81%
- viability, T/C [24]: 4.07%
- viability, T/C [25]: 71.7%
- viability, T/C [26]: 62.7%
- viability, T/C [27]: 38.1%
- viability, T/C [28]: 21.9%
- viability, T/C [29]: 4.81%
- viability, T/C [30]: 3.46%

SMILES: COc1cc(C2c3cc4c(cc3C(OC3OC5COC(C)OC5C(O)C3O)C3COC(=O)C23)OCO4)cc(OC)c1O (stereo not given) + NC1CCC(NC2CC2c2ccccc2)CC1
- IC50 (second compound 0.1 µM): 79.5 nM
- IC50 (second compound 0.316 µM): 89.9 nM
- IC50 (second compound 1 µM): 86.5 nM
- IC50 (second compound 3.16 µM): 85.8 nM
- IC50 (second compound 10 µM): 57.1 nM
- viability, T/C (second compound 0.1 µM, first compound 0.00949 µM): 105%
- viability, T/C (second compound 0.1 µM, first compound 0.03 µM): 83.1%
- viability, T/C (second compound 0.1 µM, first compound 0.0949 µM): 44.7%
- viability, T/C (second compound 0.1 µM, first compound 0.3 µM): 14.6%
- viability, T/C (second compound 0.1 µM, first compound 0.949 µM): 6.37%
- viability, T/C (second compound 0.1 µM, first compound 3 µM): 4.96%
- viability, T/C (second compound 0.316 µM, first compound 0.00949 µM): 91.9%
- viability, T/C (second compound 0.316 µM, first compound 0.03 µM): 100%
- viability, T/C (second compound 0.316 µM, first compound 0.0949 µM): 47.7%
- viability, T/C (second compound 0.316 µM, first compound 0.3 µM): 15.1%
- viability, T/C (second compound 0.316 µM, first compound 0.949 µM): 6.33%
- viability, T/C (second compound 0.316 µM, first compound 3 µM): 5.43%
- viability, T/C (second compound 1 µM, first compound 0.00949 µM): 108%
- viability, T/C (second compound 1 µM, first compound 0.03 µM): 91.5%
- viability, T/C (second compound 1 µM, first compound 0.0949 µM): 45.6%
- viability, T/C (second compound 1 µM, first compound 0.3 µM): 16%
- viability, T/C (second compound 1 µM, first compound 0.949 µM): 6.74%
- viability, T/C (second compound 1 µM, first compound 3 µM): 5.14%
- viability, T/C (second compound 3.16 µM, first compound 0.00949 µM): 106%
- viability, T/C (second compound 3.16 µM, first compound 0.03 µM): 86.4%
- viability, T/C (second compound 3.16 µM, first compound 0.0949 µM): 47.6%
- viability, T/C (second compound 3.16 µM, first compound 0.3 µM): 14.2%
- viability, T/C (second compound 3.16 µM, first compound 0.949 µM): 6.91%
- viability, T/C (second compound 3.16 µM, first compound 3 µM): 5.13%
- viability, T/C (second compound 10 µM, first compound 0.00949 µM): 89.6%
- viability, T/C (second compound 10 µM, first compound 0.03 µM): 67%
- viability, T/C (second compound 10 µM, first compound 0.0949 µM): 37.2%
- viability, T/C (second compound 10 µM, first compound 0.3 µM): 13.8%
- viability, T/C (second compound 10 µM, first compound 0.949 µM): 6.9%
- viability, T/C (second compound 10 µM, first compound 3 µM): 5.24%

SMILES: Nc1ncn(C2CC(O)C(CO)O2)c(=O)n1 (stereo not given) + NC1CCC(NC2CC2c2ccccc2)CC1
- IC50 (second compound 0.1 µM): 24.8 nM
- IC50 (second compound 0.316 µM): 46.5 nM
- IC50 (second compound 1 µM): 27.4 nM
- IC50 (second compound 3.16 µM): 19.4 nM
- IC50 (second compound 10 µM): 11.1 nM
- viability, T/C [31]: 78%
- viability, T/C [32]: 75.6%
- viability, T/C [1]: 43%
- viability, T/C [2]: 28.6%
- viability, T/C [3]: 26.1%
- viability, T/C [4]: 24.2%
- viability, T/C [33]: 72.8%
- viability, T/C [34]: 75.7%
- viability, T/C [7]: 55.2%
- viability, T/C [8]: 36.7%
- viability, T/C [9]: 25%
- viability, T/C [10]: 22.7%
- viability, T/C [35]: 89.5%
- viability, T/C [36]: 73.5%
- viability, T/C [13]: 46%
- viability, T/C [14]: 31.4%
- viability, T/C [15]: 27.8%
- viability, T/C [16]: 23.3%
- viability, T/C [37]: 83.2%
- viability, T/C [38]: 56.7%
- viability, T/C [19]: 45.3%
- viability, T/C [20]: 34%
- viability, T/C [21]: 23.7%
- viability, T/C [22]: 21.9%
- viability, T/C [39]: 80.9%
- viability, T/C [40]: 50.5%
- viability, T/C [25]: 36%
- viability, T/C [26]: 27.5%
- viability, T/C [27]: 23.3%
- viability, T/C [28]: 20.4%
